How the values were obtained:
Format in all cases: in vivo
[1] = tested on: Diabrotica Balteata (Corn Root Worm); assay: Example B1: Diabrotica balteata (corn root worm), maize sprouts sprayed, L2 larvae; conditions: 96 h, application rate of 200 ppm, 4 days after infestation, L2 larvae, read-out: control in at least one of the two categories (mortality or growth inhibition)
Method in brief: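 Larvae at L2 stage, 6 to 10 per well, feed on dried, spray-treated maize sprouts set on agar. Evaluation after 4 days compares mortality and growth inhibition with untreated samples.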

[2] = tested on: Euschistus heros (Neotropical Brown Stink Bug); assay: Example B2: Euschistus heros (neotropical brown stink bug), soybean leaves sprayed, N2 nymphs; conditions: 120 h, application rate of 200 ppm, 5 days after infestation, N2 nymphs, read-out: control in at least one of the two categories (mortality or growth inhibition)
Method: Soybean leaves on agar in 24-well microtiter plates were sprayed with aqueous test solutions prepared from 10′000 ppm DMSO stock solutions. After drying the leaves were infested with N2 nymphs. The samples were assessed for mortality and growth inhibition in comparison to untreated samples 5 days after infestation.

[3] = tested on: Chilo suppressalis (Striped Rice Stemborer); assay: Example B3: Chilo suppressalis (striped rice stemborer), artificial diet, L2 larvae; conditions: 144 h, application rate of 200 ppm, 6 days after infestation, L2 larvae, read-out: control in at least one of the three categories (mortality, anti-feedant effect, or growth inhibition)
Method in brief: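 Artificial diet treated with aqueous dilutions of DMSO stocks (10'000 ppm stock), dried, then infested with 6-8 L2 larvae per well. Mortality, anti-feeding and growth inhibition scored against untreated samples 6 days after infestation. Control counted when any category exceeds untreated.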

[4] = tested on: Plutella xylostella (Diamond Back Moth); assay: Example B4: Plutella xylostella (diamond back moth), artificial diet, eggs, 24-well; conditions: 192 h, application rate of 200 ppm, 8 days after infestation, eggs, read-out: control in at least one of the two categories (mortality or growth inhibition)
Method: 24-well microtiter plates with artificial diet were treated with aqueous test solutions prepared from 10′000 ppm DMSO stock solutions by pipetting. After drying, Plutella eggs were pipetted through a plastic stencil onto a gel blotting paper and the plate was closed with it. The samples were assessed for mortality and growth inhibition in comparison to untreated samples 8 days after infestation.

[5] = tested on: Spodoptera littoralis (Egyptian Cotton Leaf Worm); assay: Example B7: Spodoptera littoralis (Egyptian cotton leaf worm), cotton leaf discs sprayed, L1 larvae; conditions: foliar, 72 h, application rate of 200 ppm, 3 days after infestation, L1 larvae, read-out: control in at least one of the three categories (mortality, anti-feedant effect, or growth inhibition)
Method in brief: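 Cotton leaf discs on agar were sprayed with aqueous test solutions made from 10′000 ppm DMSO stocks, dried, then infested with five L1 larvae. Mortality, anti-feeding effect and growth inhibition were scored against untreated discs 3 days after infestation; control means any category exceeds untreated.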

[6] = tested on: Myzus persicae (Green Peach Aphid); assay: Example B6: Myzus persicae (green peach aphid) intrinsic activity, sucrose solution; conditions: 120 h, test rate of 12 ppm, 5 days after infestation, intrinsic activity, read-out: mortality
Method: Test compounds prepared from 10′000 ppm DMSO stock solutions were applied by pipette into 24-well microtiter plates and mixed with sucrose solution. The plates were closed with a stretched Parafilm. A plastic stencil with 24 holes was placed onto the plate and infested pea seedlings were placed directly on the Parafilm. The infested plate was closed with a gel blotting paper and another plastic stencil and then turned upside down. The samples were assessed for mortality 5 days after infestation.

COc1nc(N(CC2CC2)C(C)c2ncnn2-c2ncccn2)c2cc(C(F)(F)F)cc(Cl)c2n1 (stereo not shown) [P.36, 8-chloro-N-(cyclopropylmethyl)-2-methoxy-N-[1-(2-pyrimidin-2-yl-1,2,4-triazol-3-yl)ethyl]-6-(trifluoromethyl)quinazolin-4-amine]
≥ 80%: percent control (mortality or growth inhibition) at 200 ppm [1] | percent control (mortality or growth inhibition) at 200 ppm [2]

CC(c1nccnc1-n1nccn1)N(CC1CC1)c1ncnc2c(C(F)(F)F)cc(Br)cc12 (stereo not shown) [P.78, 6-bromo-N-(cyclopropylmethyl)-N-[1-[3-(triazol-2-yl)pyrazin-2-yl]ethyl]-8-(trifluoromethyl)quinazolin-4-amine]
≥ 80%: percent control (mortality or growth inhibition) at 200 ppm [1] | percent control (mortality, anti-feedant effect or growth inhibition) at 200 ppm [3] | percent control (mortality or growth inhibition) at 200 ppm [2] | percent control (mortality or growth inhibition) at 200 ppm [4]

CC(c1ncnn1-c1ncc(Br)cn1)N(C)c1ncnc2c(C(F)(F)F)cc(C(F)(F)F)cc12 (stereo not shown) [P.89, N-[1-[2-(5-bromopyrimidin-2-yl)-1,2,4-triazol-3-yl]ethyl]-N-methyl-6,8-bis(trifluoromethyl)quina-zolin-4-amine]
≥ 80%: percent control (mortality or growth inhibition) at 200 ppm [1] | percent control (mortality, anti-feedant effect or growth inhibition) at 200 ppm [3] | percent control (mortality or growth inhibition) at 200 ppm [2] | percent control (mortality or growth inhibition) at 200 ppm [4]

CC(Nc1nccc2c(C(F)(F)F)cc(C(F)(F)F)cc12)c1ncnn1-c1ncccn1 (stereo not shown) [P.83, N-[1-(2-pyrimidin-2-yl-1,2,4-triazol-3-yl)ethyl]-5,7-bis(trifluoromethyl)isoquinolin-1-amine]
≥ 80%: percent control (mortality or growth inhibition) at 200 ppm [1] | percent control (mortality, anti-feedant effect or growth inhibition) at 200 ppm [3] | percent control (mortality or growth inhibition) at 200 ppm [2] | percent control (mortality or growth inhibition) at 200 ppm [4]

C[C@@H](c1ncnn1-c1ccc(C#N)cn1)N(C)c1ncnc2c(C(F)(F)C3CC3)cc(C(F)(F)F)cc12 [P.213, 6-[5-[(1S)-1-[[8-[cyclopropyl(difluoro)meth-yl]-6-(trifluoromethyl)quinazolin-4-yl]-methyl-amino]ethyl]-1,2,4-triazol-1-yl]pyridine-3-carbonitrile]
≥ 80%: percent control (mortality or growth inhibition) at 200 ppm [1] | percent control (mortality, anti-feedant effect or growth inhibition) at 200 ppm [3] | percent control (mortality or growth inhibition) at 200 ppm [2] | percent control (mortality, anti-feedant effect or growth inhibition) at 200 ppm [5] | percent control (mortality or growth inhibition) at 200 ppm [4]

CC(c1nccnc1-n1nccn1)N(CC1CC1)c1ncnc2c(C(F)(F)F)cc(C(F)(F)F)cc12 (stereo not shown) [P.75, N-(cyclopropylmethyl)-N-[1-[3-(triazol-2-yl)pyrazin-2-yl]ethyl]-6,8-bis(trifluoromethyl)quina-zolin-4-amine]
≥ 80%: percent control (mortality or growth inhibition) at 200 ppm [1] | percent control (mortality, anti-feedant effect or growth inhibition) at 200 ppm [3] | percent control (mortality or growth inhibition) at 200 ppm [2] | percent control (mortality or growth inhibition) at 200 ppm [4]

CC(c1ncnn1-c1ccc(C#N)cn1)N(C)c1ncnc2c(OC(F)(F)F)cc(Br)cc12 (stereo not shown) [P.216, 6-[5-[1-[[6-bromo-8-(trifluoromethoxy)quinazo-lin-4-yl]-methyl-amino]ethyl]-1,2,4-triazol-1-yl]pyridine-3-carbonitrile]
≥ 80%: percent control (mortality or growth inhibition) at 200 ppm [1] | percent control (mortality, anti-feedant effect or growth inhibition) at 200 ppm [3] | percent control (mortality or growth inhibition) at 200 ppm [2] | percent control (mortality, anti-feedant effect or growth inhibition) at 200 ppm [5] | percent control (mortality or growth inhibition) at 200 ppm [4]

CC(c1ncnn1-c1ccc(C#N)cn1)N(Cc1ccccc1)c1ncnc2c(C(F)(F)F)cc(C(F)(F)F)cc12 (stereo not shown) [P.8, 6-[5-[1-[benzyl-[6,8-bis(trifluoromethyl)quina-zolin-4-yl]amino]ethyl]-1,2,4-triazol-1-yl]pyridine-3-carbonitrile]
≥ 80%: percent control (mortality or growth inhibition) at 200 ppm [1] | percent control (mortality, anti-feedant effect or growth inhibition) at 200 ppm [3] | percent control (mortality or growth inhibition) at 200 ppm [2] | percent control (mortality, anti-feedant effect or growth inhibition) at 200 ppm [5] | percent control (mortality or growth inhibition) at 200 ppm [4]

C[C@@H](c1ncnn1-c1ncccn1)N(C)c1ncnc2c(C(F)(F)F)cc(C(F)(F)C3CC3)cc12 [P.276, 6-[cyclopropyl(difluoro)meth-yl]-N-methyl-N-[(1S)-1-(2-pyrimidin-2-yl-1,2,4-triazol-3-yl)ethyl]-8-(trifluromethyl)quinazolin-4-amine]
≥ 80%: percent control (mortality or growth inhibition) at 200 ppm [1] | percent control (mortality, anti-feedant effect or growth inhibition) at 200 ppm [3] | percent control (mortality or growth inhibition) at 200 ppm [2] | percent control (mortality, anti-feedant effect or growth inhibition) at 200 ppm [5] | percent control (mortality or growth inhibition) at 200 ppm [4]

Cc1cnc(-c2ccc(C#N)cn2)c([C@H](C)N(C)c2ncnc3c(C(F)(F)F)cc(C(F)(F)F)cc23)n1 [P.175, 6-[3-[(1S)-1-[[6,8-bis(trifluoromethyl)quina-zolin-4-yl]-methyl-amino]ethyl]-5-methyl-pyraizn-2-yl]pyridine-3-carbonitrile]
≥ 80%: percent control (mortality or growth inhibition) at 200 ppm [1] | percent control (mortality, anti-feedant effect or growth inhibition) at 200 ppm [3] | percent control (mortality or growth inhibition) at 200 ppm [2] | percent control (mortality or growth inhibition) at 200 ppm [4]

CC(Nc1ncnc2c(Cl)cc(C(F)(F)F)cc12)c1ncnn1-c1ncccn1 (stereo not shown) [P.43, 8-chloro-N-[1-(2-pyrimidin-2-yl-1,2,4-triazol-3-yl)ethyl]-6-(trifluoromethyl)quinazolin-4-amine]
≥ 80%: percent control (mortality or growth inhibition) at 200 ppm [1] | percent control (mortality, anti-feedant effect or growth inhibition) at 200 ppm [3] | percent control (mortality or growth inhibition) at 200 ppm [2] | percent control (mortality or growth inhibition) at 200 ppm [4]

CC(=O)N(c1ncnc2c(C(F)(F)F)cc(C(F)(F)F)cc12)C(C)c1ncnn1-c1ccc(C#N)cn1 (stereo not shown) [P.259, N-[6,8-bis(trifluoromethyl)quina-zolin-4-yl]-N-[1-[2-(5-cyano-2-pyridyl)-1,2,4-triazol-3-yl]ethyl]acetamide]
≥ 80%: percent control (mortality or growth inhibition) at 200 ppm [1] | percent control (mortality, anti-feedant effect or growth inhibition) at 200 ppm [3] | percent control (mortality or growth inhibition) at 200 ppm [2] | percent control (mortality, anti-feedant effect or growth inhibition) at 200 ppm [5] | percent control (mortality or growth inhibition) at 200 ppm [4]

COCN(c1ncnc2c(C(F)(F)F)cc(C(F)(F)F)cc12)C(C)c1ncnn1-c1ccc(C#N)cn1 (stereo not shown) [P.7, 6-[5-[1-[[6,8-bis(trifluroomethyl)quina-zolin-4-yl]-(methoxymethyl)amino]ethyl]-1,2,4-triazol-1-yl]pyridine-3-carbonitrile]
≥ 80%: percent control (mortality or growth inhibition) at 200 ppm [1] | percent control (mortality, anti-feedant effect or growth inhibition) at 200 ppm [3] | percent control (mortality or growth inhibition) at 200 ppm [2] | percent control (mortality, anti-feedant effect or growth inhibition) at 200 ppm [5] | percent control (mortality or growth inhibition) at 200 ppm [4]

C[C@H](Nc1ncnc2c(Cl)cc(C(F)(F)F)cc12)c1ncnn1-c1ncccn1 [P.18, 8-chloro-N-[(1S)-1-(2-pyrimidin-2-yl-1,2,4-triazol-3-yl)ethyl]-6-(trifluoromethyl)quinazolin-4-amine]
≥ 80%: mortality at 12 ppm [6] | percent control (mortality or growth inhibition) at 200 ppm [1] | percent control (mortality, anti-feedant effect or growth inhibition) at 200 ppm [3] | percent control (mortality, anti-feedant effect or growth inhibition) at 200 ppm [5] | percent control (mortality or growth inhibition) at 200 ppm [4]

Source: patent US20230002359A1, “PESTICIDALLY ACTIVE FUSED BICYCLIC HETEROAROMATIC COMPOUNDS” (priority 2019, published 2023)
